Tests used:
human D3 receptor = human D3 receptor (Homo sapiens (Human), UniProt P35462); test: Radioligand binding ([3H]-spiperone) to human D3 receptor, HEK293 EBNA membranes; conditions: HEK293 EBNA cells expressing human D3 receptor
Experimental: (§1) HEK293 EBNA cells were transiently transfected with expression plasmids encoding for the human D2 or D3 or for the human 5-HT2A receptor, respectively. The cells were harvested 48 h post-transfection, washed three times with cold PBS and stored at −80° C. prior to use. The pellet was suspended in cold 50 mM Tris-HCl buffer containing 10 mM EDTA (pH 7.4) and was homogenized with a Polytron (Kinematica AG, Basel, Switzerland) for 20-30 sec at 12.000 rpm. After centrifugation at 48.000×g for 30 min at 4° C., the pellet was resuspended in cold 10 mM Tris-HCl buffer containing 0.1 mM EDTA (pH 7.4), homogenized, and centrifuged as above. This pellet was further resuspended in a smaller volume of ice cold 10 mM Tris-HCl buffer containing 0.1 mM EDTA (pH 7.4) and homogenized with a Polytron for 20-30 sec at 12.000 rpm. The protein content of this homogenate was determined with the Bio-Rad (Bradford) Protein Assay (Biorad Laboratories GmbH, München, Germany) according to the instructions of the manufacturer using gamma globulin as the standard. This homogenate was stored at −80° C. in aliquots and thawed immediately prior to use.
(§2) Aliquots of membrane preparations were thawed at RT, resuspended in assay buffer (D2, D3: 50 mM Tris-HCl, 120 mM NaCl, 5 mM MgCl2, 1 mM EDTA, 5 mM KCl, 1.5 mM CaCl2, pH=7.4; 5-HT2A: 50 mM Tris-HCl, 10 mM MgCl2, 1 mM EGTA, pH=7.4), homogenized with a Polytron for 20-30 sec at 12.000 rpm and adjusted to a final concentration of approximately 7.5 μg protein/well (D2, D3) and 15 μg protein/well (5-HT2A), respectively.
(§3) The binding affinity (Ki) of the compounds was determined using radioligand binding.
(§4) Membranes were incubated in a total volume of 200 μl with a fixed concentration of radioligand (final concentration approximately 0.7 nM [^3H]-spiperone for D2, 0.5 nM [^3 H]-spiperone for D3, and 1.1 nM [^3H]-ketanserin for 5-HT2A) and ten concentrations of test compound in ranging between 10 μM-0.1 nM for 1 h at RT. At the end of the incubation, the reaction mixtures were filtered on to unifilter 96-well white microplates with bonded GF/C filters (Packard BioScience, Zürich, Switzerland; preincubated for 1 h in 0.1% polyethylenimine (PEI) in assay buffer) with a Filtermate 196 harvester (Packard BioScience) and washed 3 times with cold assay buffer. The nonspecific binding was determined with equally composed reaction mixtures in the presence of 10 μM unlabelled spiperone. Per well 45 μl of Microscint 40 (Perkin Elmer, Schwerzenbach, Switzerland) was added, plates for sealed, shaken for 20 min and counted for 3 min on a Topcount Microplate Scintillation Counter (Canberra Packard SA, Zürich, Switzerland) with quenching correction.
(§5) The CPM value for each duplicate of a concentration of competing compound was averaged (y1), then the % specific binding was calculated according to the equation (((y1−non-specific)/(total binding−non-specific))×100). Graphs were plotted with the % specific binding using XLfit, a curve-fitting program that iteratively plots the data using Levenberg-Marquardt algorithm. The single site competition analysis equation used was y=A+((B−A)/(1+((x/C)D))), where y is the % specific binding, A is the minimum y, B is the maximum y, C is the IC50, x is the log 10 of the concentration of the competing compound and D is the slope of the curve (the Hill Coefficient). From these curves the IC50 (inhibition concentration at which 50% specific binding of the radioligand was displaced) and Hill coefficient were determined. The affinity constant (Ki) was calculated using the Cheng-Prusoff equation Ki=(IC50/1+([L]/Kd), where [L] is the concentration of radioligand and Kd is the dissociation constant of the radioligand at the receptor as determined by the saturation isotherm.

human 5-HT2A receptor = human 5-HT2A receptor (Homo sapiens (Human), UniProt P28223); test: Radioligand binding ([3H]-ketanserin) to human 5-HT2A receptor, HEK293 EBNA membranes; conditions: HEK293 EBNA cells expressing human 5-HT2A receptor
human 5-HT2A receptor, sequence (P28223 whole entry): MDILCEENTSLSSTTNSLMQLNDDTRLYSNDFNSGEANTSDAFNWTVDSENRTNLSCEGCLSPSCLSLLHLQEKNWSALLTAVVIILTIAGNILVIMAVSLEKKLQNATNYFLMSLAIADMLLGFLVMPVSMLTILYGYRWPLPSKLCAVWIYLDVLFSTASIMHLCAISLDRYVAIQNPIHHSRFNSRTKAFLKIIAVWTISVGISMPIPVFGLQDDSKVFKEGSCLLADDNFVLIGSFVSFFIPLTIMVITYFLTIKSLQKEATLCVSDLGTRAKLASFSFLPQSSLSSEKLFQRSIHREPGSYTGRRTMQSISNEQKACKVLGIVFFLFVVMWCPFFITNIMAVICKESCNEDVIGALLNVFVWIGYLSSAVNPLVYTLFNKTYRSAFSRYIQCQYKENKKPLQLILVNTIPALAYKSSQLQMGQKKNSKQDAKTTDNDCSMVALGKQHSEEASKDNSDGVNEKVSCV
Experimental: The ability of the compounds to bind to the 5-HT2A, D3 and D2 receptors was determined using radioligand binding to cloned receptors selectively expressed in HEK-293 EBNA cells.
as §1, §2, §3, §4, §5

human D2 receptor = human D2 receptor (Homo sapiens (Human), UniProt P14416); test: Radioligand binding ([3H]-spiperone) to human D2 receptor, HEK293 EBNA membranes; conditions: HEK293 EBNA cells expressing human D2 receptor
human D2 receptor, sequence (P14416 whole entry): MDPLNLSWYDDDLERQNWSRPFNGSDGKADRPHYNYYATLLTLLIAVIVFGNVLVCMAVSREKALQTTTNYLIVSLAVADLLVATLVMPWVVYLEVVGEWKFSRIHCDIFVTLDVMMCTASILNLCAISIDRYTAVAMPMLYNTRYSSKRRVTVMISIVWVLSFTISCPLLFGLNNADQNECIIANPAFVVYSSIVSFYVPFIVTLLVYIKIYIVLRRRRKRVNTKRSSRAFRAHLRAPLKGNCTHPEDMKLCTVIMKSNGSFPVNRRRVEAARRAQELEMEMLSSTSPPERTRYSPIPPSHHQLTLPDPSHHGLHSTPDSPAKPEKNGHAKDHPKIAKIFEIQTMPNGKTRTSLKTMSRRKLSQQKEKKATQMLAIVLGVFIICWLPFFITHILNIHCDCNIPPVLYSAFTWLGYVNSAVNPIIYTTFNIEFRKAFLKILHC
Experimental: as §1, §2, §3, §4, §5

human D3 receptor, sequence (P35462 whole entry): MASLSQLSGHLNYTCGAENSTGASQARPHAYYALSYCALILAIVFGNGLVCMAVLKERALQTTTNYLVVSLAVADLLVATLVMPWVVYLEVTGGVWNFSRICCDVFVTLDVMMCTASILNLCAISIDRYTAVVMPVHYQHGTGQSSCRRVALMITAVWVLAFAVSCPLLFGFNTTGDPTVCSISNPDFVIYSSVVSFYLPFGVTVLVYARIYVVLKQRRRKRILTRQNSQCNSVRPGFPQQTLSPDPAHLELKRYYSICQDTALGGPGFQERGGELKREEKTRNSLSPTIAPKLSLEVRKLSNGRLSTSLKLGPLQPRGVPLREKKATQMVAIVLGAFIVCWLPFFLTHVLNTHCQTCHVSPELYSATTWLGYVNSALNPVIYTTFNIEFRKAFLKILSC

SMILES	Ki (human D3 receptor)	Ki (human 5-HT2A receptor)	melting point	Ki (human D2 receptor)
CC(C)(C)CC(=O)N[C@H]1CC[C@H](CCN2CCC(c3coc4ccccc34)CC2)CC1 [Example 40, trans-N-{4-[2-(4-Benzofuran-3-yl-piperidin-1-yl)-ethyl]-cyclohexyl}-3,3-dimethyl-butyramide]	4.35 nM	10.4 nM	174 °C	53 nM
O=C(N[C@H]1CC[C@H](CCN2CCC(c3coc4ccccc34)CC2)CC1)c1ccccc1 [Example 9, trans-N-{4-[2-(4-Benzofuran-3-yl-piperidin-1-yl)-ethyl]-cyclohexyl}-benzamide]	1.34 nM	4.36 nM	189 °C	32.3 nM
O=C(N[C@H]1CC[C@H](CCN2CCC(c3coc4ccccc34)CC2)CC1)C1CC1 [Example 27, Cyclopropanecarboxylic acid trans-{4-[2-(4-benzofuran-3-yl-piperidin-1-yl)-ethyl]-cyclohexyl}-amide]	2.69 nM	4.3 nM	204 °C	22.7 nM
O=C(Cc1noc2ccccc12)N[C@H]1CC[C@H](CCN2CCC(c3coc4ccccc34)CC2)CC1 [Example 85, trans-2-Benzo[d]isoxazol-3-yl-N-{4-[2-(4-benzofuran-3-yl-piperidin-1-yl)-ethyl]-cyclohexyl}-acetamide]	145 nM	8.22 nM	175 °C	245 nM
O=C(CCO)N[C@H]1CC[C@H](CCN2CCC(c3coc4ccccc34)CC2)CC1 [Example 21, trans-N-{4-[2-(4-Benzofuran-3-yl-piperidin-1-yl)-ethyl]-cyclohexyl}-3-hydroxy-propionamide]	1.27 nM	8.26 nM	148 °C	62.9 nM
O=C(Cc1ccc2c(c1)OCO2)N[C@H]1CC[C@H](CCN2CCC(c3coc4ccccc34)CC2)CC1 [Example 74, trans-2-Benzo[1,3]dioxol-5-yl-N-{4-[2-(4-benzofuran-3-yl-piperidin-1-yl)-ethyl]-cyclohexyl}-acetamide]	1.66 nM	11.5 nM	177 °C	92.5 nM
O=C(N[C@H]1CC[C@H](CCN2CCC(c3coc4ccccc34)CC2)CC1)c1ccc(Cl)cc1 [Example 49, trans-N-{4-[2-(4-Benzofuran-3-yl-piperidin-1-yl)-ethyl]-cyclohexyl}-4-chloro-benzamide]	3.22 nM	9.01 nM	203 °C	25.8 nM
O=C(CO)N[C@H]1CC[C@H](CCN2CCC(c3coc4ccccc34)CC2)CC1 [Example 11, trans-N-{4-[2-(4-Benzofuran-3-yl-piperidin-1-yl)-ethyl]-cyclohexyl}-2-hydroxy-acetamide]	1.47 nM	4.92 nM	161 °C	46.5 nM
Cc1ccc(S(=O)(=O)N[C@H]2CC[C@H](CCN3CCC(c4coc5ccccc45)CC3)CC2)cc1 [Example 38, trans-N-{4-[2-(4-Benzofuran-3-yl-piperidin-1-yl)-ethyl]-cyclohexyl}-4-methyl-benzenesulfonamide]	6.24 nM	41.5 nM	149 °C	58.6 nM
O=C(N[C@H]1CC[C@H](CCN2CCC(c3coc4ccccc34)CC2)CC1)C1CCOCC1 [Example 3, Tetrahydro-pyran-4-carboxylic acid trans-{4-[2-(4-benzofuran-3-yl-piperidin-1-yl)-ethyl]-cyclohexyl}-amide]	4.53 nM	2.44 nM	175 °C	37.3 nM
CC(C)CC(=O)N[C@H]1CC[C@H](CCN2CCC(c3coc4ccccc34)CC2)CC1 [Example 15, trans-N-{4-[2-(4-Benzofuran-3-yl-piperidin-1-yl)-ethyl]-cyclohexyl}-3-methyl-butyramide]	1.94 nM	8.65 nM	182 °C	43.5 nM
O=C(N[C@H]1CC[C@H](CCN2CCC(c3coc4ccccc34)CC2)CC1)C1CCC1 [Example 20, Cyclobutanecarboxylic acid trans-{4-[2-(4-benzofuran-3-yl-piperidin-1-yl)-ethyl]-cyclohexyl}-amide]	1.85 nM	5.56 nM	180 °C	38 nM
O=C(N[C@H]1CC[C@H](CCN2CCC(c3coc4ccccc34)CC2)CC1)c1ccnc2ccccc12 [Example 19, Quinoline-4-carboxylic acid trans-{4-[2-(4-benzofuran-3-yl-piperidin-1-yl)-ethyl]-cyclohexyl}-amide]	3.36 nM	8.7 nM	169 °C	96.7 nM
CS(=O)(=O)CC(=O)N[C@H]1CC[C@H](CCN2CCC(c3coc4ccccc34)CC2)CC1 [Example 7, trans-N-{4-[2-(4-Benzofuran-3-yl-piperidin-1-yl)-ethyl]-cyclohexyl}-2-methanesulfonyl-acetamide]	1.45 nM	3.54 nM	187 °C	50.8 nM
COCC(=O)N[C@H]1CC[C@H](CCN2CCC(c3coc4ccccc34)CC2)CC1 [Example 6, trans-N-{4-[2-(4-Benzofuran-3-yl-piperidin-1-yl)-ethyl]-cyclohexyl}-2-methoxy-acetamide]	3.52 nM	3.36 nM	115 °C	80.1 nM
O=C(N[C@H]1CC[C@H](CCN2CCC(c3coc4ccccc34)CC2)CC1)c1ccc(Cl)cc1Cl [Example 87, trans-N-{4-[2-(4-Benzofuran-3-yl-piperidin-1-yl)-ethyl]-cyclohexyl}-2,4-dichloro-benzamide]	4.37 nM	12.3 nM	187 °C	38.2 nM
CC(C)(C)C(=O)N[C@H]1CC[C@H](CCN2CCC(c3coc4ccccc34)CC2)CC1 [Example 28, trans-N-{4-[2-(4-Benzofuran-3-yl-piperidin-1-yl)-ethyl]-cyclohexyl}-2,2-dimethyl-propionamide]	12.7 nM	6.05 nM	157 °C	38 nM
CCc1ccc(C(=O)N[C@H]2CC[C@H](CCN3CCC(c4coc5ccccc45)CC3)CC2)cc1 [Example 81, trans-N-{4-[2-(4-Benzofuran-3-yl-piperidin-1-yl)-ethyl]-cyclohexyl}-4-ethyl-benzamide]	1.33 nM	2.53 nM	192 °C	204 nM
CCCCC(=O)N[C@H]1CC[C@H](CCN2CCC(c3coc4ccccc34)CC2)CC1 [Example 57, Pentanoic acid trans-{4-[2-(4-benzofuran-3-yl-piperidin-1-yl)-ethyl]-cyclohexyl}-amide]	2.21 nM	13 nM	167 °C	65.7 nM
O=C(N[C@H]1CC[C@H](CCN2CCC(c3coc4ccccc34)CC2)CC1)c1ccc(N2CCOCC2)cc1 [Example 13, trans-N-{4-[2-(4-Benzofuran-3-yl-piperidin-1-yl)-ethyl]-cyclohexyl}-4-morpholin-4-yl-benzamide]	7.4 nM	11.1 nM	249 °C	406 nM

Source: patent publication US8921397B2, “Benzofurane-piperidine compounds” (Hoffmann-La Roche Inc., priority 2011, dated 2014)
